Entries after “also recorded” stand apart in the source; their conditions may differ.
Columns and labels:
[1] = molecular target: PolQ ATPase enzyme (1-894) (Homo sapiens (Human), UniProt O75417); assay: Polθ ATPase enzymatic assay (3 nM enzyme concentration), ADP-Glo; type: biochemical
Experimental: Following pre-incubation with inhibitors, DNA (Fork C) at 20 nM and ATP at 100 μM are added to start the reaction. Enzymatic reaction proceeds at rt for 60 min. ATP consumption is measured using the ADP-Glo assay from Promega. Luminescence is read on the Envision and IC50 are determined using the variable slope 4-parameters equation.
DNA (Fork C) is made by annealing 3 different oligos containing the following sequence of nucleotides:
Oligos are annealed by heating at 95° C. for 5 min in the following buffer (10 mM Tris-HCl PH7.5, 50 mM NaCl, 1 mM EDTA) and cooled to rt.
In Table 4, the Compounds were prepared according to Methods described previously using Intermediates described herein, commercially available reagents or intermediates described in the literature. In some cases, the use of protecting groups may be required to prepare Compounds described below.

HCT116 BRCA2−/− cells = assay: Combination of Compound 113 and PARP inhibitors, cell growth by Incucyte; type: cell-based
Experimental: HCT116-BRCA2−/− (750 cells/well) cells were seeded in a 96-well plate (Costar 3595) and incubated overnight in a tissue culture incubator (5% CO2, 37° C.). The next day, Compound 113 and PARP inhibitors (olaparib or niraparib) were added using a TECAN D300 instrument. Media was replenished with fresh compounds every 3 or 4 days. Cellular growth was monitored using the Incucyte® Live-Cell Analysis System until DMSO-treated wells reached 90% confluency (10-12 days). Cellular confluency was determined using Incucyte® Cell-by-Cell Analysis Software Module and dose-response curves calculated using GraphPad Prism software.

[2] = tested on: DOTC24510 BRCA 2 mutant breast tumor cells; assay: Compound 113 and radiotherapy, cell viability by Incucyte; type: cell-based; conditions: 200 nM Compound 113 with radiotherapy at 0.5 or 1 Gy on days 2, 6, 9; read day 13 (FIG. 5)
Experimental: DOTC24510 BRCA 2 mutant breast tumor cells were plated in 96 well plates at a density of 1000 cells per well and cultured in tissue culture medium at 37° C. On day 1, cells were treated with either DMSO or 200 nM of Compound 113. Cells were irradiated with 0, 0.25, 0.5 or 1 Gy of radiation on days 2, 6, and 9. Cell viability was assessed by Incucyte assay on day 13.

HCT116 BRCA2−/− tumor = assay: Polθ-PARP inhibitor combination therapy, tumor volume in mice; type: in vivo, SCID-Beige mice; conditions: Compound 113 30 mg/kg SDD suspension p.o. QD with olaparib 25 mg/kg p.o. QD; N=10, p=0.0008 (FIG. 2)
Experimental: (§1) A spray dried dispersion (SDD) formulation was developed using Compound 113. A 1:1 (w/w) mixture of Compound 113 and HPMCAS (grade H) were fully dissolved in a 4:1 (v/v) mixture of dichloromethane:methanol at a loading of ˜5% solid (w/w). The solution was spray-dried to an amorphous powder which was further dried overnight in a vacuum oven set to 40° C. to remove residual solvents. This SDD material was used for subsequent in vivo dosing in mouse models.
HCT116-BRCA2−/− (10^7 cells/mouse) cells were injected subcutaneously in SCID-Beige mice. Mice were randomized at a mean tumor volume of 150 mm^3. Compound 113 (30 mg/kg as an SDD suspension in 0.5% methocel+0.02% SLS) and PARP inhibitor olaparib (25 mg/kg) were dosed orally (p.o.) QD throughout the study. Control mice were dosed QD with vehicle solution. Tumor volumes measured (caliper) every 3-4 days. N=10, Welch's t test, *** p=0.0008.

[3] = tested on: MDAMB436 BRCA1 mutant breast tumor cells; assay: Polθ-DNA-PK inhibitor combination, cell viability by Incucyte; type: cell-based; conditions: in combination with AZD-7648 (DNA-PK inhibitor), 9 days (FIG. 3)
Experimental: MDAMB436 BRCA1 mutant breast tumor cells were plated at 1500 cells/well in 96 well plates. Compounds were added on day 1 and cells were grown in at 37° C. for 9 days. Cell growth was assessed by the Incucyte assay. Cell viability was normalized to untreated cells.

DLD1-BRCA2−/− tumors = assay: Compound 113 and carboplatin, tumor volume in mice; type: in vivo, SCID-Beige mice; conditions: Compound 113 45 mg/kg SDD suspension p.o. QD with carboplatin 25 mg/kg i.p. QW; day 35 N=10, p=0.0428 (FIG. 6A, 6B)
Experimental: as §1
DLD1-BRCA2−/− (10^7 cells/mouse) cells were injected subcutaneously in SCID-Beige mice. Mice were randomized at a mean tumor volume of 150 mm^3. Compound 113 (45 mg/kg as an SDD suspension in 0.5% methocel+0.02% SLS) was dosed orally (p.o.) QD throughout the study. Carboplatin (25 mg/kg) was dosed i.p. QW. Control mice were dosed QD and QW with corresponding vehicle solutions. Tumor volumes were measured (caliper) every 2-3 days.

[4] = tested on: DLD1 BRCA2 null tumor cells; assay: Polθ-DNA-PK inhibitor combination, cell viability by Incucyte; type: cell-based; conditions: in combination with AZD-7648 (DNA-PK inhibitor), 8 days (FIG. 4)
Experimental: DLD1 BRCA2 null tumor cells were plated at 1000 cells/well in 96 well plates. Compounds were added on day 1 and cells were grown in at 37° C. for 8 days. Cell growth was assessed by the Incucyte assay. Cell viability was normalized to untreated cells.

Chain of PolQ ATPase enzyme (1-894) (O75417 1-894): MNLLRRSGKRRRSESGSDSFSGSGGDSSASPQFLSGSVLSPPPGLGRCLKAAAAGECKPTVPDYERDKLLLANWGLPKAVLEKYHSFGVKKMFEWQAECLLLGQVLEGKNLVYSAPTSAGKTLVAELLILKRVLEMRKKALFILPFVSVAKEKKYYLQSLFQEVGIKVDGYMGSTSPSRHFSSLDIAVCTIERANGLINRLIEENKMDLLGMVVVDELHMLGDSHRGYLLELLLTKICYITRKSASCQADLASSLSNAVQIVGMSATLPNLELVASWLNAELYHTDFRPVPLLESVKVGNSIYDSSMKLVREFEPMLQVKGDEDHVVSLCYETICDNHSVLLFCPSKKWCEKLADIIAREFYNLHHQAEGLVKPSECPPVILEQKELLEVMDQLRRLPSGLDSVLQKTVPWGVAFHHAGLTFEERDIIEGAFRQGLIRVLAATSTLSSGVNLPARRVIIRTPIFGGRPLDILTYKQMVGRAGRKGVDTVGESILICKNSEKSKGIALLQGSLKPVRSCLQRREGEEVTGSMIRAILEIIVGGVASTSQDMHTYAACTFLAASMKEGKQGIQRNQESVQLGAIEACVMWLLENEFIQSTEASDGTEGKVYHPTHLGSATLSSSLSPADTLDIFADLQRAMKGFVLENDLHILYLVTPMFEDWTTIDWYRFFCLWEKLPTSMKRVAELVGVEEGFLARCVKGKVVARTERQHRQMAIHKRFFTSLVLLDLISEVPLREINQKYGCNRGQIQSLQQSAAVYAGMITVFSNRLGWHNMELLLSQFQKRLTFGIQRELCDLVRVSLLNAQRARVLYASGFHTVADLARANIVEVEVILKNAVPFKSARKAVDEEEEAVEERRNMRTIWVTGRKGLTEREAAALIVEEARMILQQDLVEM

IC50 [1] [nM]	SMILES	percent viability of HCT116 BRCA2−/− cells, combination versus inhibitors alone (HCT116 BRCA2−/− cells; in combination with niraparib, 10-12 days (FIG. 1B))	percent viability of HCT116 BRCA2−/− cells, combination versus inhibitors alone (HCT116 BRCA2−/− cells; in combination with olaparib, 10-12 days (FIG. 1A))	DOTC24510 BRCA 2 mutant breast tumor cell viability, combination versus Compound 113 alone [2]	HCT116 BRCA2−/− tumor volume, combination versus inhibitors alone (HCT116 BRCA2−/− tumor)	MDAMB436 BRCA1 cell viability, combination versus AZD-7648 alone [3]	DLD1-BRCA2−/− tumor volume, combination versus monotherapy treatments (DLD1-BRCA2−/− tumors)	DLD1 BRCA2 null tumor cell viability, combination versus AZD-7648 alone [4]
92	COc1ccc(F)cc1-c1cnccc1C(=O)Nc1nnc([C@@H]2C[C@H]2c2nc3ccccc3n2C)s1 (racemic) [Compound 4, 3-(5-fluoro-2-methoxyphenyl)-N-(5-((1R,2R)-2-(1-methyl-1H-benzo[d]imidazol-2-yl)cyclopropyl)-1,3,4-thiadiazol-2-yl)isonicotinamide]	–	–	–	–	–	–	–
–	COc1cnc(C(F)F)cc1-c1cc(-c2ccn(C)n2)ncc1C(=O)Nc1nnc(C#CC2CC2)s1 [Compound 113, N-(5-(cyclopropylethynyl)-1,3,4-thiadiazol-2-yl)-2′-(difluoromethyl)-5′-methoxy-6-(1-methyl-1H-pyrazol-3-yl)-[4,4′-bipyridine]-3-carboxamide]	superior at reducing cancer cell viability	superior at reducing cancer cell viability	sensitizes DOTC24510 breast tumor cells to irradiation; also recorded: superior at reducing DOTC24510 BRCA 2 mutant breast tumor cell viability	superior at reducing tumor volume	sensitizes MDAMB436 breast tumor cells to AZD-7648; also recorded: superior at reducing MDAMB436 BRCA1 cell viability	sensitizes DLD1 BRCA2 null tumors to carboplatin; also recorded: superior at reducing tumor volume in mice	sensitizes DLD1 BRCA2 null tumor cells to AZD-7648; also recorded: superior at reducing DLD1 BRCA2 null tumor cell viability
